The target in experiment [1] is T1, NLRP3 inflammasome (Homo sapiens, UniProt Q96P20).
T1 construct: endogenous in cells; host or cells: THP-1 monocytic cells
Kind of experiment: IL-1β secretion assay (NLRP3 IC50) in LPS-primed, nigericin-activated THP-1 cells, HTRF. The class given is cell-based. The conditions noted are these: monocytic THP-1 cells; LPS 10 ng/mL 3 h priming, then compound + nigericin 10 μM 2 h; relative IC50, 10 concentrations, geometric mean. In outline:
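THP-1 cells primed with LPS 10 ng/mL for 3 h at 37° C., then compound (10-point 1:3 dilution, 0.1% DMSO) added with 10 μM nigericin for 2 h. Supernatant IL-1β measured by HTRF; relative IC50 from a 4-parameter logistic fit, reported as geometric mean.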

Experiment [2] relates to NF-kB pathway (TNF-α secretion by THP-1 cells). Kind of experiment: TNF-α secretion assay in LPS-stimulated THP-1 cells, Lumit immunoassay. The class given is cell-based, human. The conditions noted are these: Homo sapiens, THP-1, 3 h, monocytic THP-1 cells, LPS 10 ng/mL, relative IC50, 10 concentrations, geometric mean. The essentials:
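THP-1 monocytes in RPMI with 5% FBS were treated with compound, then stimulated with 10 ng/mL LPS for 3 h. Secreted TNF-α was measured in-plate by Lumit immunoassay. Relative IC50 came from 10-concentration curves fitted with a 4-parameter logistic model, reported as geometric mean.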

The structures appear in SMILES notation. Where a name gives a salt, the structure may show the parent alone.

Results on 30 compounds are retold here after US20240360151A1 (SANOFI, priority 2023, published 2024).

As a reminder, the IC50 is the concentration that gives 50% inhibition.

T1 sequence (Q96P20 whole entry): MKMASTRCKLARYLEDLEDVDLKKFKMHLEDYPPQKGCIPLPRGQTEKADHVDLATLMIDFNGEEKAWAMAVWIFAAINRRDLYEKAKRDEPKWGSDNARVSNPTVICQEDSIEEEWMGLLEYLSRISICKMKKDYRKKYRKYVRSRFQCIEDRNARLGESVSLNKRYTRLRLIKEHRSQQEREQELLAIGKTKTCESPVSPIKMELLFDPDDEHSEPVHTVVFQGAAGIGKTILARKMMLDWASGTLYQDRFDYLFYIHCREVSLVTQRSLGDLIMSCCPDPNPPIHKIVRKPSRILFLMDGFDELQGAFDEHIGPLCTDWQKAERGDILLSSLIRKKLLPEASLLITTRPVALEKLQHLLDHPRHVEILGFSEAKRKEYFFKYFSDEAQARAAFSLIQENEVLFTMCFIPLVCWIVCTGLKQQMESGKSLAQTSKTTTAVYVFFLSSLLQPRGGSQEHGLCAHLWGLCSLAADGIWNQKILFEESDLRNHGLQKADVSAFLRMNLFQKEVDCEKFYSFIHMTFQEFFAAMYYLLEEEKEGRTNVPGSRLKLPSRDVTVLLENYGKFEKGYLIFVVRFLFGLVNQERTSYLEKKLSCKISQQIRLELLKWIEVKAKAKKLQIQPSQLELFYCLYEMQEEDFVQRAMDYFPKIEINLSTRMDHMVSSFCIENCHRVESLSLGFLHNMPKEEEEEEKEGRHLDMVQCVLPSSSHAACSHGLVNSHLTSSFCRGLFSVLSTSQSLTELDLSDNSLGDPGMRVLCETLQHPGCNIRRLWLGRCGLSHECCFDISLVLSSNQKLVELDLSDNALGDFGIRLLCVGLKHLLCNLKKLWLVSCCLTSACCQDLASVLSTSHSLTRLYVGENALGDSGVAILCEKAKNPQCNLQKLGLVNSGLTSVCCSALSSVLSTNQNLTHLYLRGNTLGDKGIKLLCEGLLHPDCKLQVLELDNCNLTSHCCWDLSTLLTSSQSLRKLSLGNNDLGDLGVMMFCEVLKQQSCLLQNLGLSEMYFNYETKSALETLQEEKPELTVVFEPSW

Turning to `CC(=O)N1CC[C@H]2OCCN(c3cc(C(F)F)c(-c4ccc(C(F)(F)F)cc4O)nn3)[C@H]2C1` [Example 386, 1-[(4aS,8aR)-4-[5-(difluoromethyl)-6-[2-hydroxy-4-(trifluoromethyl)phenyl]pyridazin-3-yl]-3,4a,5,7,8,8a-hexahydro-2H-pyrido[4,3-b][1,4]oxazin-6-yl]ethanone], the IC50 was 19 nM in experiment [1] and over 10 µM in experiment [2].

On to `Cc1cc(Cl)cc(O)c1-c1cc(C#N)c(N2CCO[C@H](CO)C2)nn1` [Example 163, 6-(4-chloro-2-hydroxy-6-methyl-phenyl)-3-[(2S)-2-(hydroxymethyl)morpholin-4-yl]pyridazine-4-carbonitrile], for which the IC50 in experiment [1] is 7 nM; in experiment [2], over 10 µM.

`Cc1cc(Cl)cc(O)c1-c1ccc(N2CCO[C@@H](CF)C2)nn1` [Example 338, 5-chloro-2-[6-[(2R)-2-(fluoromethyl)morpholin-4-yl]pyridazin-3-yl]-3-methyl-phenol]: the values for the half-inhibitory concentration (IC50) in experiment [1] and in experiment [2] were 46 nM and over 10 µM, respectively.

`Cc1cc(C(F)(F)F)cc(O)c1-c1ccc(N2CCO[C@@H]3CCN(C)C[C@@H]32)nn1` (single isomer, unassigned) [Example 260]: the IC50 in experiment [1] is 180 nM; in experiment [2], over 10 µM.

As to `Cc1cc(C(F)(F)F)cc(O)c1-c1ccc(N2CC[C@H]3CN(C)C[C@H]32)nn1` (racemic) [Example 265, 2-[6-[rac-(3aS,6aS)-5-methyl-2,3,3a,4,6,6a-hexahydropyrrolo[3,4-b]pyrrol-1-yl]pyridazin-3-yl]-3-methyl-5-(trifluoromethyl)phenol], the IC50 in experiment [1] is 314 nM; in experiment [2], over 10 µM.

Turning to `Cc1cc(C(F)(F)F)cc(O)c1-c1ccc(N2CC[C@H]3CNC[C@@H]3C2=O)nn1` (racemic) [Example 269, rac-(3aS,7aS)-5-[6-[2-hydroxy-6-methyl-4-(trifluoromethyl)phenyl]pyridazin-3-yl]-2,3,3a,6,7,7a-hexahydro-1H-pyrrolo[3,4-c]pyridin-4-one, hydrochloride], the values for the IC50 in experiment [1] and in experiment [2] were 404 nM and over 10 µM, respectively.

Regarding `CN(C)C[C@H]1CCN(c2ccc(-c3c(O)cc(Cl)cc3Cl)nn2)C1` [Example 41, 3,5-dichloro-2-[6-[(3R)-3-[(dimethylamino)methyl]pyrrolidin-1-yl]pyridazin-3-yl]phenol], the IC50 was 252 nM in experiment [1] and over 10 µM in experiment [2].

As for `Cc1cc(C(F)(F)F)cc(O)c1-c1ccc(N2CCO[C@@H](CO)C2)nn1` [Example 266, 2-[6-[(2R)-2-(hydroxymethyl)morpholin-4-yl]pyridazin-3-yl]-3-methyl-5-(trifluoromethyl)phenol], the results for the IC50 in experiment [1] and in experiment [2] were 73 nM and over 10 µM, respectively.

In the case of `Cc1cc(C(C)C)cc(O)c1-c1ccc(N2CCO[C@H](CO)C2)nn1` [Example 274, 2-[6-[(2S)-2-(hydroxymethyl)morpholin-4-yl]pyridazin-3-yl]-5-isopropyl-3-methyl-phenol], the IC50 in experiment [1] is 171 nM; in experiment [2] it was over 10 µM.

On to `CCN1CC[C@@H]2OCCN(c3ccc(-c4c(C)cc(C(F)(F)F)cc4O)nn3)[C@@H]2C1` (single isomer, unassigned) [Example 255], for which the IC50 in experiment [1] was 249 nM; in experiment [2], over 10 µM.

On to `Oc1cc(Cl)cc(Cl)c1-c1ccc(N2CCC3(CC(O)C3)C2)nn1` (stereo not drawn) [Example 42, 6-[6-(2,4-dichloro-6-hydroxy-phenyl)pyridazin-3-yl]-6-azaspiro[3.4]octan-2-ol], for which the IC50 is 134 nM in experiment [1] and over 10 µM in experiment [2].

As to `Cc1cc(C)c(-c2cc(C(F)F)c(N3CCO[C@@H]4CCN(C)C[C@@H]43)nn2)c(O)c1` [Example 291, 2-[6-[(4aS,8aR)-6-methyl-3,4a,5,7,8,8a-hexahydro-2H-pyrido[4,3-b][1,4]oxazin-4-yl]-5-(difluoromethyl)pyridazin-3-yl]-3,5-dimethyl-phenol], the figures for the IC50 in experiment [1] and in experiment [2] were 1 nM and over 10 µM, respectively.

`CCN1CC[C@@H]2OCCN(c3ccc(-c4c(C)cc(Cl)cc4O)nn3)[C@@H]2C1` (racemic) [Example 223, 5-chloro-3-methyl-2-[6-[rac-(4aR,8aS)-6-ethyl-3,4a,5,7,8,8a-hexahydro-2H-pyrido[4,3-b][1,4]oxazin-4-yl]pyridazin-3-yl]phenol]: the IC50 in experiment [1] was 1 nM; in experiment [2] it was over 10 µM.

With `Cc1cc(C)c(-c2ccc(N3CC(CO)CCC3=O)nn2)c(O)c1` (stereo not drawn) [Example 235, 1-[6-(2-hydroxy-4,6-dimethyl-phenyl)pyridazin-3-yl]-5-(hydroxymethyl) piperidin-2-one], the IC50 in experiment [1] is 70 nM; in experiment [2], 7.13 µM.

On to `Cc1cc(C)c(-c2ccc(N3CCOC[C@@H]3CO)nn2)c(O)c1` [Example 6, 2-[6-[(3S)-3-(hydroxymethyl)morpholin-4-yl]pyridazin-3-yl]-3,5-dimethyl-phenol], for which the values for the IC50 in experiment [1] and in experiment [2] were 235 nM and over 10 µM, respectively.

For `Cc1cc(N2CCO[C@H](CO)C2)nnc1-c1ccc2c(c1O)CCC2` [Example 324, 5-[6-[(2S)-2-(hydroxymethyl)morpholin-4-yl]-4-methyl-pyridazin-3-yl]indan-4-ol], the IC50 in experiment [1] was 56 nM; in experiment [2], over 10 µM.

In the case of `CCN1CC[C@H]2OCCN(c3cc(C)c(-c4ccc(Cl)cc4O)nn3)[C@H]2C1` [Example 437, 2-[6-[(4aS,8aR)-6-ethyl-3,4a,5,7,8,8a-hexahydro-2H-pyrido[4,3-b][1,4]oxazin-4-yl]-4-methyl-pyridazin-3-yl]-5-chloro-phenol], the IC50 was 1 nM in experiment [1] and over 10 µM in experiment [2].

In the case of `Cc1ccc(-c2nnc(N3CC[C@@H]4CCN(C)C[C@@H]43)cc2C)c(O)c1` (racemic) [Example 341, 5-methyl-2-[4-methyl-6-[rac-(3aS,7aR)-6-methyl-3,3a,4,5,7,7a-hexahydro-2H-pyrrolo[2,3-c]pyridin-1-yl]pyridazin-3-yl]phenol], the half-inhibitory concentration (IC50) was 1 nM in experiment [1] and over 10 µM in experiment [2].

As to `Cc1cc(Cl)cc(O)c1-c1ccc(N2CCO[C@H](CNC(=O)C(C)C)C2)nn1` [Example 279, N-[[(2R)-4-[6-(4-chloro-2-hydroxy-6-methylphenyl)pyridazin-3-yl]morpholin-2-yl]methyl]-2-methylpropanamide], the results for the half-inhibitory concentration (IC50) in experiment [1] and in experiment [2] were 277 nM and over 10 µM, respectively.

With `Cc1cc(O)c(-c2ccc(N3CCO[C@H](CO)C3)nn2)c(C(F)F)c1` [Example 153, 3-(difluoromethyl)-2-[6-[(2S)-2-(hydroxymethyl)morpholin-4-yl]pyridazin-3-yl]-5-methyl-phenol], the half-maximal inhibitory concentration (IC50) was 47 nM in experiment [1] and over 10 µM in experiment [2].

Regarding `Cc1cc(C)c(-c2ccc(N3CCC[C@@H](N)C3)nn2)c(O)c1` [Example 31, 2-[6-[(3R)-3-amino-1-piperidyl]pyridazin-3-yl]-3,5-dimethyl-phenol; formic acid], the IC50 was 520 nM in experiment [1] and over 10 µM in experiment [2].

On to `Cc1cc(C)c(-c2ccc(N3C[C@@H](O)CC3=O)nn2)c(O)c1` [Example 86, (4S)-4-hydroxy-1-[6-(2-hydroxy-4,6-dimethyl-phenyl)pyridazin-3-yl]pyrrolidin-2-one], for which the IC50 in experiment [1] is 506 nM; in experiment [2] it was over 10 µM.

In the case of `Cc1cc(Cl)cc(O)c1-c1cc(CO)c(N2CCO[C@H](CO)C2)nn1` [Example 189, 5-chloro-2-[5-(hydroxymethyl)-6-[(2S)-2-(hydroxymethyl)morpholin-4-yl]pyridazin-3-yl]-3-methyl-phenol], the IC50 is 12 nM in experiment [1] and over 10 µM in experiment [2].

As to `Cc1cc(C(F)(F)F)cc(O)c1-c1ccc(N2CCCC2=O)nn1` [Example 61, 1-[6-[2-hydroxy-6-methyl-4-(trifluoromethyl)phenyl]pyridazin-3-yl]pyrrolidin-2-one], the IC50 is 90 nM in experiment [1] and over 10 µM in experiment [2].

Consider `CC(C)c1cc(N2CCO[C@H](CO)C2)nnc1-c1ccc(Cl)cc1O` [Example 75, 5-chloro-2-[6-[(2S)-2-(hydroxymethyl)morpholin-4-yl]-4-isopropyl-pyridazin-3-yl]phenol], for which the IC50 in experiment [1] was determined as 183 nM; in experiment [2], 9.6 µM.

In the case of `Cc1cc(C)c(-c2ccc(N3CC[C@@H](CO)C3)nn2)c(O)c1` [Example 65, 2-[6-[(3R)-3-(hydroxymethyl)pyrrolidin-1-yl]pyridazin-3-yl]-3,5-dimethyl-phenol], the IC50 in experiment [1] is 151 nM; in experiment [2], over 10 µM.

With `Cc1cc(C)c(-c2ccc(N3CCC[C@H](O)C3)nn2)c(O)c1` [Example 67, (3S)-1-[6-(2-hydroxy-4,6-dimethyl-phenyl)pyridazin-3-yl]piperidin-3-ol], the IC50 was 306 nM in experiment [1] and over 10 µM in experiment [2].

As to `CN1CC[C@H]2OCCN(c3cc(C(F)F)c(-c4ccc(C(F)(F)F)cc4O)nn3)[C@H]2C1` [Example 298, 2-[6-[(4aS,8aR)-6-methyl-3,4a,5,7,8,8a-hexahydro-2H-pyrido[4,3-b][1,4]oxazin-4-yl]-4-(difluoromethyl)pyridazin-3-yl]-5-(trifluoromethyl)phenol], the 50% inhibitory concentration (IC50) in experiment [1] is 3 nM; in experiment [2], over 10 µM.

For the compound `Cc1ccc(-c2nnc(N3CC[C@H]4CCN(C)C[C@H]43)cc2C)c(O)c1` (single isomer, unassigned) [Example 375], the 50% inhibitory concentration (IC50) in experiment [1] was 0.4 nM; in experiment [2], over 10 µM.

As to `Oc1cc(Cl)cc(Cl)c1-c1ccc(N2CCOCC2)nn1` [Example 38, 3,5-dichloro-2-(6-morpholinopyridazin-3-yl)phenol], the IC50 in experiment [1] was 90 nM; in experiment [2], over 10 µM.
